Data on 21 compounds can be found in patent US10745382B2 (BRISTOL-MYERS SQUIBB COMPANY, priority 2015, dated 2020).

pIC50: −log10 of the molar value.

The target in this assay is T1, PD-1/PD-L1 (Homo sapiens, UniProt Q9NZQ7).
T1 construct: made in house; host or cells: HEK293T
T1 sequence (Q9NZQ7 with tags, fused parts or gaps): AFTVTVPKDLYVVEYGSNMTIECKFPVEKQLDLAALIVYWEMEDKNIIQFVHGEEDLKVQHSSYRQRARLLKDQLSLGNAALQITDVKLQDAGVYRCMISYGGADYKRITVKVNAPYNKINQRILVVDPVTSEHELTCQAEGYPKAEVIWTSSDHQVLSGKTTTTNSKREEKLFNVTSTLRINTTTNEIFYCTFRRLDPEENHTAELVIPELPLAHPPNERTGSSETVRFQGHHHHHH
The assay can be described thus: PD-1/PD-L1 Homogenous Time-Resolved Fluorescence (HTRF) binding assay. To be noted: PD-L1-His 10 nM, PD-1-Ig 20 nM; value given as range class; read-out: Range or IC50. A digest of the protocol:
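Additional pairs run were PD-1-Ig with PD-L2-His (20 & 5 nM) and CD80-His with PD-L1-Ig (100 & 10 nM), all human proteins. Buffer: dPBS plus 0.1% BSA, 0.05% Tween-20; time-resolved FRET read-out via 1 nM Eu-cryptate anti-Ig and 20 nM APC anti-His, final concentrations.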
Background: Time-resolved FRET reads energy transfer from a long-lived donor to a nearby acceptor.
Regarding `CCN(CC)C(=O)c1cccc(-c2cccc(COc3cc(OCc4cncc(C#N)c4)c(CNC(C)(CO)CO)cc3Cl)c2C)c1C` [Example 4045, 3′-((2-chloro-5-((5-cyanopyridin-3-yl)methoxy)-4-(((1,3-dihydroxy-2-methylpropan-2-yl)amino)methyl)phenoxy)methyl)-N,N-diethyl-2,2′-dimethyl-[1,1′-biphenyl]-3-carboxamide], the pIC50 was 5.70 to 7.00.
The figure for `CCN(CC)C(=O)c1cccc(-c2cccc(COc3cc(OCc4cncc(C#N)c4)c(CN4CCOC[C@H]4C(=O)O)cc3Cl)c2C)c1C` [Example 4046, (S)-4-(5-chloro-2-((5-cyanopyridin-3-yl)methoxy)-4-((3′-(diethylcarbamoyl)-2,2′-dimethyl-[1,1′-biphenyl]-3-yl)methoxy)benzyl)morpholine-3-carboxylic Acid] is 5.70 to 7.00; for `Cc1c(COc2cc(OCc3cncc(C#N)c3)c(CN3CCCC[C@H]3C(=O)O)cc2Cl)cccc1-c1cccc(C(=O)N2CCOCC2)c1C` [Example 4048, (S)-1-(5-chloro-2-((5-cyanopyridin-3-yl)methoxy)-4-((2,2′-dimethyl-3′-(morpholine-4-carbonyl)-[1,1′-biphenyl]-3-yl)methoxy)benzyl)piperidine-2-carboxylic Acid] it is 5.70 to 7.00.
Under `Cc1c(COc2cc(OCc3cncc(C#N)c3)c(CN3CCC[C@H]3C(=O)O)cc2Cl)cccc1-c1cccc(C(=O)N2CCOCC2)c1C` [Example 4049, (5-chloro-2-((5-cyanopyridin-3-yl)methoxy)-4-((2,2′-dimethyl-3′-(morpholine-4-carbonyl)-[1,1′-biphenyl]-3-yl)methoxy)benzyl)-L-proline] stands 5.70 to 7.00; under `Cc1c(COc2cc(OCc3cncc(C#N)c3)c(CN3C[C@H](O)C[C@H]3C(=O)O)cc2Cl)cccc1-c1cccc(C(=O)N2CCOCC2)c1C` [Example 4050, (2S,4R)-1-(5-chloro-2-((5-cyanopyridin-3-yl)methoxy)-4-((2,2′-dimethyl-3′-(morpholine-4-carbonyl)-[1,1′-biphenyl]-3-yl)methoxy)benzyl)-4-hydroxypyrrolidine-2-carboxylic Acid], 5.70 to 7.00.
For `Cc1c(COc2cc(OCc3cncc(C#N)c3)c(CN3C[C@@H](O)C[C@H]3C(=O)O)cc2Cl)cccc1-c1cccc(C(=O)N2CCOCC2)c1C` [Example 4051, (2S,4S)-1-(5-chloro-2-((5-cyanopyridin-3-yl)methoxy)-4-((2,2′-dimethyl-3′-(morpholine-4-carbonyl)-[1,1′-biphenyl]-3-yl)methoxy)benzyl)-4-hydroxypyrrolidine-2-carboxylic Acid], the pIC50 is 7.00 to 8.00.
The figure for `Cc1c(COc2cc(OCc3cncc(C#N)c3)c(CNC(CO)CO)cc2Cl)cccc1-c1cccc(C(=O)N2CCOCC2)c1C` [Example 4052, 5-((4-chloro-2-(((1,3-dihydroxypropan-2-yl)amino)methyl)-5-((2,2′-dimethyl-3′-(morpholine-4-carbonyl)-[1,1′-biphenyl]-3-yl)methoxy)phenoxy)methyl)nicotinonitrile] is 7.00 to 8.00.
For `Cc1c(COc2cc(OCc3cncc(C#N)c3)c(CNC(C)(CO)CO)cc2Cl)cccc1-c1cccc(C(=O)N2CCOCC2)c1C` [Example 4053, 5-((4-chloro-2-(((1,3-dihydroxy-2-methylpropan-2-yl)amino)methyl)-5-((2,2′-dimethyl-3′-(morpholine-4-carbonyl)-[1,1′-biphenyl]-3-yl)methoxy)phenoxy)methyl)nicotinonitrile], the pIC50 is 7.00 to 8.00.
Under `Cc1c(COc2cc(OCc3cncc(C#N)c3)c(CN3CCOC[C@H]3C(=O)O)cc2Cl)cccc1-c1cccc(C(=O)N2CCOCC2)c1C` [Example 4054, (S)-4-(5-chloro-2-((5-cyanopyridin-3-yl)methoxy)-4-((2,2′-dimethyl-3′-(morpholine-4-carbonyl)-[1,1′-biphenyl]-3-yl)methoxy)benzyl)morpholine-3-carboxylic Acid] stands 5.70 to 7.00; under `Cc1c(COc2cc(OCc3cncc(C#N)c3)c(CN[C@@H](CO)C(=O)O)cc2Cl)cccc1-c1cccc(C(=O)N2CCOCC2)c1C` [Example 4055, (5-chloro-2-((5-cyanopyridin-3-yl)methoxy)-4-((2,2′-dimethyl-3′-(morpholine-4-carbonyl)-[1,1′-biphenyl]-3-yl)methoxy)benzyl)-L-serine], 7.00 to 8.00.
With `Cc1c(COc2cc(OCc3cncc(C#N)c3)c(CN[C@@H](CNC(=O)OC(C)(C)C)C(=O)O)cc2Cl)cccc1-c1cccc(C(=O)N2CCOCC2)c1C` [Example 4056, (S)-3-((tert-butoxycarbonyl)amino)-2-((5-chloro-2-((5-cyanopyridin-3-yl)methoxy)-4-((2,2′-dimethyl-3′-(morpholine-4-carbonyl)-[1,1′-biphenyl]-3-yl)methoxy)benzyl)amino)propanoic Acid], the pIC50 is 5.70 to 7.00.
Under `Cc1c(COc2cc(OCc3cncc(C#N)c3)c(CNC(CO)(CO)CO)cc2Cl)cccc1-c1cccc(C(=O)N2CCOCC2)c1C` [Example 4058, 5-((4-chloro-2-(((1,3-dihydroxy-2-(hydroxymethyl)propan-2-yl)amino)methyl)-5-((2,2′-dimethyl-3′-(morpholine-4-carbonyl)-[1,1′-biphenyl]-3-yl)methoxy)phenoxy)methyl)nicotinonitrile] stands 7.00 to 8.00; under `Cc1c(COc2cc(OCc3cncc(C#N)c3)c(CN[C@@H](CN)C(=O)O)cc2Cl)cccc1-c1cccc(C(=O)N2CCOCC2)c1C` [Example 4059, (S)-3-amino-2-((5-chloro-2-((5-cyanopyridin-3-yl)methoxy)-4-((2,2′-dimethyl-3′-(morpholine-4-carbonyl)-[1,1′-biphenyl]-3-yl)methoxy)benzyl)amino)propanoic Acid], 5.70 to 7.00; under `Cc1c(COc2cc(OCc3cncc(C#N)c3)c(CN3CCNC[C@H]3C(=O)O)cc2Cl)cccc1-c1cccc(C(=O)N2CCOCC2)c1C` [Example 4060, (S)-1-(5-chloro-2-((5-cyanopyridin-3-yl)methoxy)-4-((2,2′-dimethyl-3′-(morpholine-4-carbonyl)-[1,1′-biphenyl]-3-yl)methoxy)benzyl)piperazine-2-carboxylic Acid], 5.70 to 7.00.
For `Cc1c(CCCCN2CC[C@@H](O)C2)cccc1-c1cccc(COc2cc(OCc3cncc(C#N)c3)c(CN3CCCC[C@H]3C(=O)O)cc2Cl)c1C` [Example 4061, (S)-1-(5-chloro-2-((5-cyanopyridin-3-yl)methoxy)-4-((3′-(4-((R)-3-hydroxypyrrolidin-1-yl)butyl)-2,2′-dimethyl-[1,1′-biphenyl]-3-yl)methoxy)benzyl)piperidine-2-carboxylic Acid], the pIC50 is 8.00 to 9.68.
For the compound `Cc1c(CCCCN2CC[C@@H](O)C2)cccc1-c1cccc(COc2cc(OCc3cncc(C#N)c3)c(CN3C[C@H](O)C[C@H]3C(=O)O)cc2Cl)c1C` [Example 4062, (2S,4R)-1-(5-chloro-2-((5-cyanopyridin-3-yl)methoxy)-4-((3′-(4-((R)-3-hydroxypyrrolidin-1-yl)butyl)-2,2′-dimethyl-[1,1′-biphenyl]-3-yl)methoxy)benzyl)-4-hydroxypyrrolidine-2-carboxylic Acid], the pIC50 was 8.00 to 9.68.
The figure for `Cc1c(CCCCN2CC[C@@H](O)C2)cccc1-c1cccc(COc2cc(OCc3cncc(C#N)c3)c(CN3C[C@@H](O)C[C@H]3C(=O)O)cc2Cl)c1C` [Example 4063, (2S,4S)-1-(5-chloro-2-((5-cyanopyridin-3-yl)methoxy)-4-((3′-(4-((R)-3-hydroxypyrrolidin-1-yl)butyl)-2,2′-dimethyl-[1,1′-biphenyl]-3-yl)methoxy)benzyl)-4-hydroxypyrrolidine-2-carboxylic Acid] is 8.00 to 9.68; for `Cc1c(CCCCN2CC[C@@H](O)C2)cccc1-c1cccc(COc2cc(OCc3cncc(C#N)c3)c(CNC(CO)CO)cc2Cl)c1C` [Example 4064, (R)-5-((4-chloro-2-(((1,3-dihydroxypropan-2-yl)amino)methyl)-5-((3′-(4-(3-hydroxypyrrolidin-1-yl)butyl)-2,2′-dimethyl-[1,1′-biphenyl]-3-yl)methoxy)phenoxy)methyl)nicotinonitrile] it is 8.00 to 9.68; for `Cc1c(CCCCN2CC[C@@H](O)C2)cccc1-c1cccc(COc2cc(OCc3cncc(C#N)c3)c(CNC(C)(CO)CO)cc2Cl)c1C` [Example 4065, (R)-5-((4-chloro-2-(((1,3-dihydroxy-2-methylpropan-2-yl)amino)methyl)-5-((3′-(4-(3-hydroxypyrrolidin-1-yl)butyl)-2,2′-dimethyl-[1,1′-biphenyl]-3-yl)methoxy)phenoxy)methyl)nicotinonitrile] it is 8.00 to 9.68.
The figure for `Cc1c(CCCCN2CC[C@@H](O)C2)cccc1-c1cccc(COc2cc(OCc3cncc(C#N)c3)c(CNC(CO)(CO)CO)cc2Cl)c1C` [Example 4066, (R)-5-((4-chloro-2-(((1,3-dihydroxy-2-(hydroxymethyl)propan-2-yl)amino)methyl)-5-((3′-(4-(3-hydroxypyrrolidin-1-yl)butyl)-2,2′-dimethyl-[1,1′-biphenyl]-3-yl)methoxy)phenoxy)methyl)nicotinonitrile] is 8.00 to 9.68; for `Cc1c(CCCCN2CC[C@@H](O)C2)cccc1-c1cccc(COc2cc(OCc3cncc(C#N)c3)c(CN[C@@H](CNC(=O)OC(C)(C)C)C(=O)O)cc2Cl)c1C` [Example 4067, (S)-3-((tert-butoxycarbonyl)amino)-2-((5-chloro-2-((5-cyanopyridin-3-yl)methoxy)-4-((3′-(4-((R)-3-hydroxypyrrolidin-1-yl)butyl)-2,2′-dimethyl-[1,1′-biphenyl]-3-yl)methoxy)benzyl)amino)propanoic Acid] it is 8.00 to 9.68.

The pIC50 is −log10 of the IC50, conventionally taken in molar units.
